US20220204498A1, “PYRIDO-PYRIMIDINYL COMPOUNDS AND METHODS OF USE” (Genentech, Inc., priority 2019, published 2022)

Molecular target: T1, IRE1α (Homo sapiens, UniProt O75460, D688N)
T1 construct: containing the kinase and RNase domains (KR, AA G547-1L977, D688N); made in house; host or cells: Sf9 insect cells
Experiment: IRE1α TR-FRET competition binding assay (IRE1α HTRF)
Conditions: His-tagged IRE1α kinase dead construct (KR, D688N) 0.25 nM; Alexa fluor 647-labeled ATP competitive probe 2 nM; one hour at room temperature; read-out: IRE1α (alpha) HTRF (IC50)
Method: Example 59. IRE1α TR-FRET Competition Binding Assay
To determine the affinity of compound binding to the kinase domain of IRE1α, a time-resolved fluorescence resonance energy transfer (TR-FRET) competition assay was used.
A His-tagged IRE1α kinase dead construct containing the kinase and RNase domains (KR, AA G547-1L977, D688N) was expressed in Sf9 insect cells. The purified protein (final concentration 0.25 nM) was pre-incubated with anti-His Europium labeled antibody (Life Technologies PV5596, final concentration 2 nM) for one hour at 4° C. in TR-FRET Assay Buffer (50 mM HEPES, pH 7.5, 10 mM MgCl2, 0.083 mM Brij 35, 1 mM DTT, and 0.1% bovine gamma globulin) prior to addition to test compounds. An Alexa fluor 647-labeled probe based on an ATP competitive inhibitor was added to a final concentration of 2 nM. Reactions were carried out for one hour at room temperature in a final volume of 20 μL in 384 well white ProxiPlates (Perkin Elmer 6008289). Binding of the probe to the IRE1α protein was detected in an Envision instrument (PerkinElmer) equipped with a TRF laser option and a LANCE/Delfia Dual/Bias D400/D630 mirror (Ex 347 nm, 1st Em 665 nm, 2nd Em 615 nm).

T1 sequence (O75460 547-977 D688N): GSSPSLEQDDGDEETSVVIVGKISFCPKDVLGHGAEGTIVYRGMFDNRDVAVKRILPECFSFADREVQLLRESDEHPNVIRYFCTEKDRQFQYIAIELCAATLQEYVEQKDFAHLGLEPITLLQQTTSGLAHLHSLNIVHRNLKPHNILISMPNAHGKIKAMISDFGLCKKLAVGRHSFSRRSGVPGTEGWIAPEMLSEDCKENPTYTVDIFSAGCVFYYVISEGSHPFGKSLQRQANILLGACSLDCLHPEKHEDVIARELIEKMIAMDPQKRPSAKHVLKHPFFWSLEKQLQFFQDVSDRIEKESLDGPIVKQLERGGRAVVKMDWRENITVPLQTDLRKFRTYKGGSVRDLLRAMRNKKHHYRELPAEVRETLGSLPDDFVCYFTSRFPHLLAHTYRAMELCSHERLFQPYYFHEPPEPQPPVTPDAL

| IC50 [nM] | Structure (SMILES) |
| --- | --- |
| 3.3 | Cc1cc(NS(=O)(=O)c2ccccc2Cl)ncc1-c1cc(C)c2nc(N[C@H]3CC[C@H](N(C)C)CC3)ncc2n1 [Compound 149, 2-Chloro-N-(5-(2-(((1,4-trans)-4-(dimethylamino)cyclohexyl)amino)-8-methylpyrido[3,2-d]pyrimidin-6-yl)-4-methylpyridin-2-yl)benzenesulfonamide] |
| 0.15 | Cc1cc(-c2ccc(NS(=O)(=O)c3ccccc3C#N)c(F)c2)nc2cnc(N[C@H]3CC[C@H](N(C)C)CC3)nc12 [Compound 150, 2-Cyano-N-[(1,4-trans)-4-[2-[[4-(dimethylamino)cyclohexyl]amino]-8-methyl-pyrido[3,2-d]pyrimidin-6-yl]-2-fluoro-phenyl]benzenesulfonamide] |
| 39 | Cc1cc(-c2ccc3c(c2)CCS(=O)(=O)N3)nc2cnc(N[C@H]3CC[C@H](N(C)C)CC3)nc12 [Compound 151, 6-(2-(((1,4-trans)-4-(Dimethylamino)cyclohexyl)amino)-8-methylpyrido[3,2-d]pyrimidin-6-yl)-3,4-dihydro-1H-benzo[c][1,2]thiazine 2,2-dioxide] |
| 0.12 | CCc1cc(-c2ccc(NS(=O)(=O)Cc3ccc(S(C)(=O)=O)cc3)c(F)c2)nc2cnc(N[C@H]3CC[C@H](N(C)C)CC3)nc12 [Compound 152, N-(4-(2-(((1,4-trans)-4-(Dimethylamino)cyclohexyl)amino)-8-ethylpyrido[3,2-d]pyrimidin-6-yl)-2-fluorophenyl)-1-(4-(methylsulfonyl)phenyl)methanesulfonamide] |
| 0.16 | Cc1cc(-c2cc(F)c(NS(=O)(=O)Cc3ccc(F)cc3)c(F)c2F)nc2cnc(N[C@H]3CC[C@H](N(C)C)CC3)nc12 [Compound 153, N-(4-(2-(((1,4-trans)-4-(Dimethylamino)cyclohexyl)amino)-8-methylpyrido[3,2-d]pyrimidin-6-yl)-2,3,6-trifluorophenyl)-1-(4-fluorophenyl)methanesulfonamide] |
| 0.21 | Cc1cc(-c2ccc(NS(=O)(=O)c3cccnc3)c(F)c2)nc2cnc(N[C@H]3CC[C@H](N(C)C)CC3)nc12 [Compound 154, N-[4-[2-[[(1,4-trans)-4-(Dimethylamino)cyclohexyl]amino]-8-methyl-pyrido[3,2-d]pyrimidin-6-yl]-2-fluoro-phenyl]pyridine-3-sulfonamide] |
| 0.19 | Cc1cc(-c2cc(F)c(NS(=O)(=O)c3ccccc3Cl)c(F)c2F)nc2cnc(N[C@H]3CC[C@H](N(C)C)CC3)nc12 [Compound 155, 2-Chloro-N-(4-(2-(((1,4-trans)-4-(dimethylamino)cyclohexyl)amino)-8-methylpyrido[3,2-d]pyrimidin-6-yl)-2,3,6-trifluorophenyl)benzenesulfonamide] |
| 0.18 | Cc1cc(-c2ccc(NS(=O)(=O)c3cnccc3C(F)(F)F)c(F)c2)nc2cnc(N[C@H]3CC[C@H](N(C)C)CC3)nc12 [Compound 156, N-[4-[2-[[(1,4-trans)-4-(Dimethylamino)cyclohexyl]amino]-8-methyl-pyrido[3,2-d]pyrimidin-6-yl]-2-fluoro-phenyl]-4-(trifluoromethyl)pyridine-3-sulfonamide] |
| 0.23 | Cc1cc(-c2ccc(NS(=O)(=O)c3cccnc3C(F)(F)F)c(F)c2)nc2cnc(N[C@H]3CC[C@H](N(C)C)CC3)nc12 [Compound 157, N-[4-[2-[[(1,4-trans)-4-(Dimethylamino)cyclohexyl]amino]-8-methyl-pyrido[3,2-d]pyrimidin-6-yl]-2-fluoro-phenyl]-2-(trifluoromethyl)pyridine-3-sulfonamide] |
| 0.2 | Cc1cc(-c2ccc(NS(=O)(=O)c3ccccn3)c(F)c2)nc2cnc(N[C@H]3CC[C@H](N(C)C)CC3)nc12 [Compound 158, N-(4-(2-(((1,4-trans)-4-(Dimethylamino)cyclohexyl)amino)-8-methylpyrido[3,2-d]pyrimidin-6-yl)-2-fluorophenyl)pyridine-2-sulfonamide] |
| 0.33 | Cc1nc(NS(=O)(=O)c2ccccc2C#N)ccc1-c1cc(C)c2nc(N[C@H]3CC[C@H](N(C)C)CC3)ncc2n1 [Compound 159, 2-Cyano-N-(5-(2-(((1,4-trans)-4-(dimethylamino)cyclohexyl)amino)-8-methylpyrido[3,2-d]pyrimidin-6-yl)-6-methylpyridin-2-yl)benzenesulfonamide] |
